Results on ten compounds are retold here after ChEMBL document CHEMBL1201862, “PubChem BioAssay data set” (2004).

Some test systems named below: SK-MEL-28; A498; NCI-H522; OVCAR-4; COLO 205; MDA-MB-231; NCI-H460; DU-145; HCT-116; UACC-257; HCC 2998; Malme-3M; Hs-578T; HOP-62; IGROV-1; ACHN; PC-3; MDA-MB-435; SK-MEL-5; SK-OV-3.
Holding throughout (assay): inhibition of tumour cell growth, NCI panel, 48 h

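These data come from cells grown in 96-well plates and exposed to compound for 48 hours at five concentrations. Abbreviation: GI50, concentration required for 50% inhibition of growth.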 Calls of active or inactive are those of the source. Rule as the data show it: active = GI50 up to about 1.1 µM and inactive = higher.

For the compound `CN(C)CCNC(=O)c1cccc2ccc(-c3ccc(O)cc3)nc12`, the GI50 with SK-MEL-28 is 3.15 µM (inactive); in the experiment on A498, 2.64 µM (inactive); with NCI-H522 it was 1.36 µM (inactive); with OVCAR-4, 2.43 µM (inactive); in the experiment on COLO 205 it was 3.33 µM (inactive); with MDA-MB-231, 0.959 µM (active). The GI50 with NCI-H460 was 0.548 µM (active); in the experiment with DU-145, 2.33 µM (inactive); in the experiment on HCT-116, 0.698 µM (active); with UACC-257, 2.61 µM (inactive); with HCC 2998 it was 5.86 µM (inactive); in the experiment on Malme-3M, 1.05 µM (active). The GI50 in the experiment with Hs-578T is 2.66 µM (inactive); in the experiment with HOP-62 it was 1.47 µM (inactive); in the experiment on IGROV-1, 2.47 µM (inactive); in the experiment with ACHN, 1.37 µM (inactive); with PC-3 it was 2.37 µM (inactive); with MDA-MB-435, 3.74 µM (inactive). Besides, the GI50 is 1.25 µM (inactive) with SK-MEL-5 and 3.01 µM (inactive) with SK-OV-3.
Regarding `CC(C)(C)OC(=O)N(CCCCN(CCCNC(=O)C(F)(F)F)C(=O)OC(C)(C)C)CCCNC(=O)C(F)(F)F`, the GI50 in the experiment with SK-MEL-28 was > 100 µM (inactive); with A498 it was > 100 µM (inactive); in the experiment with NCI-H522, 24 µM (inactive); in the experiment with OVCAR-4, > 100 µM (inactive); in the experiment on COLO 205 it was > 100 µM (inactive); in the experiment on MDA-MB-231 it was > 100 µM (inactive). Besides, the GI50 in the experiment with NCI-H460, in the experiment with DU-145, in the experiment on HCT-116, with UACC-257, in the experiment on HCC 2998 and in the experiment on Hs-578T was > 100 µM (inactive) throughout. The GI50 in the experiment with HOP-62 is 38.7 µM (inactive); in the experiment on IGROV-1 it was > 100 µM (inactive); with ACHN, > 100 µM (inactive); with PC-3 it was > 100 µM (inactive); in the experiment with MDA-MB-435 it was > 100 µM (inactive); in the experiment with SK-MEL-5, 79.3 µM (inactive). Further, the GI50 with SK-OV-3 is > 100 µM (inactive).
Regarding `Cc1cc2c(s1)C(=O)c1sccc1C2=O`, the GI50 with SK-MEL-28 was 0.2 µM (active); in the experiment on A498, 1.78 µM (inactive); with NCI-H522, 0.552 µM (active); in the experiment on OVCAR-4, 0.561 µM (active); in the experiment on COLO 205, 1.9 µM (inactive); in the experiment with MDA-MB-231 it was 1.07 µM (active). The GI50 in the experiment on NCI-H460 was 1.72 µM (inactive); in the experiment with DU-145, 1.83 µM (inactive); with HCT-116 it was 0.998 µM (active); with UACC-257 it was 0.194 µM (active); with HCC 2998, 1.75 µM (inactive); with Malme-3M, 0.168 µM (active). The GI50 is 0.417 µM (active) with Hs-578T; 1.66 µM (inactive) in the experiment with IGROV-1; 1.05 µM (active) in the experiment with ACHN; 0.942 µM (active) in the experiment on PC-3; 0.177 µM (active) in the experiment on MDA-MB-435; 0.162 µM (active) in the experiment with SK-MEL-5. In addition, the GI50 in the experiment with SK-OV-3 was 2.06 µM (inactive).
Take `C[Si](C)(C)OC1c2[nH]c3ccccc3c2CN2C(=O)CCC12` (stereo unspecified): the GI50 in the experiment on SK-MEL-28, with A498, in the experiment with NCI-H522, in the experiment with OVCAR-4, in the experiment with COLO 205 and with MDA-MB-231 was > 100 µM (inactive) each time. Moreover, the GI50 with NCI-H460, in the experiment on DU-145, with HCT-116, in the experiment on UACC-257, in the experiment with HCC 2998 and with Hs-578T was > 100 µM (inactive) throughout. Further, the GI50 in the experiment with HOP-62, with IGROV-1, in the experiment with ACHN, in the experiment with PC-3, in the experiment with MDA-MB-435 and in the experiment with SK-MEL-5 was > 100 µM (inactive) throughout. Besides, the GI50 with SK-OV-3 was > 100 µM (inactive).
Regarding `Sc1nnc(NNc2ccccc2)n1Nc1ccccc1`, the GI50 is > 100 µM (inactive) with SK-MEL-28; 39.4 µM (inactive) in the experiment with A498; 42.5 µM (inactive) with NCI-H522; 0.236 µM (active) in the experiment with OVCAR-4; 0.109 µM (active) in the experiment on COLO 205; 44.8 µM (inactive) in the experiment on MDA-MB-231. For the same compound, the GI50 in the experiment on NCI-H460 was 0.146 µM (active); in the experiment on DU-145, > 79.4 µM (inactive); in the experiment with HCT-116, 2.31 µM (inactive); with UACC-257, 0.283 µM (active); in the experiment with HCC 2998 it was 1.78 µM (inactive); in the experiment with Hs-578T it was > 64.3 µM (inactive). Besides, the GI50 in the experiment with HOP-62 was 64.3 µM (inactive); in the experiment on IGROV-1, 19.8 µM (inactive); in the experiment with ACHN, 0.824 µM (active); in the experiment with PC-3, 44.8 µM (inactive); in the experiment with MDA-MB-435, 0.321 µM (active); with SK-MEL-5, 0.488 µM (active). The GI50 with SK-OV-3 was > 100 µM (inactive).
Consider `CCCCCC(C/C=N/N(C)C)C(O)(C(F)(F)F)C(F)(F)F` (stereo unspecified), for which the GI50 in the experiment with SK-MEL-28 was 45.8 µM (inactive); in the experiment on A498, 23.7 µM (inactive); with NCI-H522, 19.7 µM (inactive); in the experiment on OVCAR-4, 53.2 µM (inactive); with COLO 205 it was 16.3 µM (inactive); with MDA-MB-231, 27.5 µM (inactive). Besides, the GI50 is 36.4 µM (inactive) in the experiment with NCI-H460; 33.3 µM (inactive) in the experiment on DU-145; 32 µM (inactive) in the experiment with HCT-116; 35.1 µM (inactive) in the experiment with HCC 2998; 25.4 µM (inactive) in the experiment with Malme-3M; 35.6 µM (inactive) in the experiment with Hs-578T. Also, the GI50 with HOP-62 was 42.3 µM (inactive); in the experiment on IGROV-1 it was 19 µM (inactive); in the experiment with ACHN, 24.4 µM (inactive); in the experiment on PC-3 it was 20.8 µM (inactive); with MDA-MB-435, 31 µM (inactive); with SK-MEL-5, 16.6 µM (inactive). Also, the GI50 in the experiment with SK-OV-3 was 33.9 µM (inactive).
On to `O=c1[nH]c2ccccc2c2nc3ccccc3n12`, for which the GI50 in the experiment with A498 was > 100 µM (inactive); in the experiment with NCI-H522, 7.21 µM (inactive); in the experiment on OVCAR-4, 2 µM (inactive); in the experiment with COLO 205 it was 29.2 µM (inactive); in the experiment on MDA-MB-231 it was 16.9 µM (inactive); with NCI-H460, 2.54 µM (inactive). Besides, the GI50 in the experiment on DU-145 is > 100 µM (inactive); in the experiment with HCT-116 it was 19.1 µM (inactive); in the experiment on UACC-257, 38.1 µM (inactive); in the experiment on HCC 2998, 27.9 µM (inactive); with Malme-3M, 13.1 µM (inactive); in the experiment on Hs-578T it was 65.6 µM (inactive). Besides, the GI50 is 38.1 µM (inactive) in the experiment on HOP-62; 0.61 µM (active) with IGROV-1; 7.03 µM (inactive) in the experiment on ACHN; > 100 µM (inactive) in the experiment with PC-3; > 100 µM (inactive) with MDA-MB-435; 19.5 µM (inactive) in the experiment with SK-MEL-5. In addition, the GI50 with SK-OV-3 was 14 µM (inactive).
Regarding `CN1c2ccccc2S(=O)(=O)n2c(CCc3ccccc3)nnc21`, the GI50 is > 100 µM (inactive) with SK-MEL-28; 39.1 µM (inactive) in the experiment on A498; 43.9 µM (inactive) in the experiment with NCI-H522; 82 µM (inactive) with OVCAR-4; > 100 µM (inactive) in the experiment with COLO 205; > 100 µM (inactive) in the experiment on MDA-MB-231. Moreover, the GI50 was 98.6 µM (inactive) in the experiment on NCI-H460; > 100 µM (inactive) in the experiment on DU-145; > 100 µM (inactive) in the experiment on HCT-116; > 100 µM (inactive) in the experiment with UACC-257; > 100 µM (inactive) with HCC 2998; 79.4 µM (inactive) in the experiment with Hs-578T. Further, the GI50 is 41.2 µM (inactive) in the experiment with HOP-62; > 100 µM (inactive) in the experiment on IGROV-1; > 100 µM (inactive) in the experiment with ACHN; > 100 µM (inactive) in the experiment with PC-3; > 100 µM (inactive) with MDA-MB-435; > 100 µM (inactive) in the experiment on SK-MEL-5. Further, the GI50 in the experiment on SK-OV-3 is > 100 µM (inactive).
In the case of `CN(O)C(=O)Cc1ccc(OCc2cccc(Cl)c2)cc1`, the GI50 with SK-MEL-28 was > 100 µM (inactive); with A498, 1.23 µM (inactive); in the experiment on NCI-H522 it was > 100 µM (inactive); in the experiment on OVCAR-4, > 100 µM (inactive); in the experiment with COLO 205 it was > 100 µM (inactive); with MDA-MB-231, > 100 µM (inactive). Moreover, the GI50 in the experiment with NCI-H460, in the experiment with DU-145, in the experiment with HCT-116, with UACC-257, in the experiment with HCC 2998 and in the experiment on Hs-578T was > 100 µM (inactive) throughout. Moreover, the GI50 in the experiment on HOP-62, with IGROV-1, with ACHN, in the experiment on PC-3, in the experiment on MDA-MB-435 and in the experiment on SK-MEL-5 was > 100 µM (inactive) in each case. For the same compound, the GI50 in the experiment on SK-OV-3 was > 100 µM (inactive).
`CCCCc1ccc(Nc2nc(Cl)c3c(ncn3C3CC(Oc4ccc(C)cc4)C(COc4ccc(C)cc4)O3)n2)cc1` (stereo unspecified): the GI50 in the experiment on A498, in the experiment with NCI-H522, in the experiment on OVCAR-4, in the experiment on COLO 205, with MDA-MB-231 and in the experiment on NCI-H460 was > 100 µM (inactive) each time. Also, the GI50 in the experiment with DU-145 was > 100 µM (inactive); in the experiment with HCT-116, > 100 µM (inactive); with UACC-257 it was > 100 µM (inactive); with HCC 2998, > 100 µM (inactive); in the experiment with Malme-3M, > 100 µM (inactive); with Hs-578T it was 42.5 µM (inactive). The GI50 in the experiment with HOP-62, in the experiment with IGROV-1, in the experiment on ACHN, in the experiment on PC-3, in the experiment with MDA-MB-435 and in the experiment on SK-MEL-5 was > 100 µM (inactive) in each case. Moreover, in the experiment on SK-OV-3, the GI50 is > 100 µM (inactive).
